Data set [1] addresses T1, CD38 catalytic domain (shCD38) (Homo sapiens, UniProt P28907, N100D/N164A/N209D/N219D).
T1 sequence (P28907 43-300 N100D/N164A/N209D/N219D limits assumed): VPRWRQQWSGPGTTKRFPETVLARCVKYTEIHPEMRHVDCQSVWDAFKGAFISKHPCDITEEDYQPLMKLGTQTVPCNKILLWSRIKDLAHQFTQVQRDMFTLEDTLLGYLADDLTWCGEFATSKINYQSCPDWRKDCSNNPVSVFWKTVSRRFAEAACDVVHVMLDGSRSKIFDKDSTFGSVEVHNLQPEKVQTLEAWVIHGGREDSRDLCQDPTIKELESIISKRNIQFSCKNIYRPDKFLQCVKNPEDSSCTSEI
The arrangement: incubating 1 μM cADPR with 1 μg/mL CD38 catalytic domain for 10 min; made in house. To be noted: equivalent 8-substituted cIDPRs; read-out: IC50, inhibition of shCD38-mediated cADPR hydrolysis; cited from earlier work.

The conditions of data set [2]: cited from earlier work.
The conditions of data set [3]: cited from earlier work. The source holds these as a separate data set.
Data set [4] concerns the target T1, CD38 catalytic domain (shCD38). Briefly: RP-HPLC study of ligand hydrolysis by shCD38. To be noted: for hydrolysis by shCD38 at enzyme assay concentration: shCD38 1 μg/mL; for hydrolysis by shCD38 at enzyme assay concentration / hydrolysis by shCD38 at high concentration / time to 50% hydrolysis: ligand 1 mM; for hydrolysis by shCD38 at high concentration / time to 50% hydrolysis: shCD38 4 mg/mL; for time to 50% hydrolysis: Tris-HCl pH 8, room temperature. The procedure: Incubation of 7 (1 mM final concentration) with 4 mg/mL shCD38 was monitored using RP-HPLC.
Therefore, further HPLC experiments were carried out using shCD38 concentrations of 1 μg/mL and either cIDPR or 7 to observe the effect of CD38 under conditions that reflect the enzyme assay (Supporting Information, Figure S3).
The solution containing the CD38 catalytic domain was adjusted to the desired concentration using Tris-HCl buffer (20 mM, pH 8), and 50 μL therefrom was added to the inhibitor (0.05 μmol) in an Eppendorf tube at room temperature. At a given time point, a sample of 5 μL was removed and diluted with 95 μL of Milli-Q water. Then 10 μL of this sample was injected directly into the analytical HPLC system (see section General in Experimental Section), eluting at 1 mL/min with an isocratic ion-pair buffer: 0.17% (m/v) cetrimide and 45% (v/v) phosphate buffer (pH 6.4) in MeOH.

In data set [5] the test system is Ca^2+-release in permeabilized T-cells. The arrangement: method as in PMID 12932045, PMID 19492987. To be noted: cited from earlier work.
Data set [6] has as its target T1, CD38 catalytic domain (shCD38). Briefly: Inhibition of shCD38-mediated cADPR hydrolysis (fluorimetric cycling assay). It is filed as biochemical. Details: incubating 1 μM cADPR with 1 μg/mL CD38 catalytic domain for 10 min; made in house. The settings on record: 1 μM cADPR, 1 μg/mL CD38 catalytic domain, 10 min, 20–24 °C, 25 mM sodium acetate pH 4.5. The protocol: The inhibition of cADPR hydrolysis by various concentrations of analog (0–1 mM) was determined by incubating 1 μM cADPR with 1 μg/mL CD38 catalytic domain for 10 min at 20–24 °C in 25 mM sodium acetate, pH 4.5. The reaction was stopped by the addition of 150 mM HCl. The precipitated protein was filtered, and the pH was neutralized with Tris base. After the mixture was diluted 20-fold, the concentration of the unhydrolyzed cADPR present in the diluted reaction mixture was assayed by the fluorimetric cycling assay as described previously.[52]

“Also recorded” adds a separate entry of the source. Read-outs that look alike come from different tables or passages of the source.

With `Nc1nc2c(=O)n3cnc2n1C1OC(COP(=O)(O)OP(=O)(O)OCC2OC3C(O)C2O)C(O)C1O` (stereo not drawn) [8-NH2-cIDPR], the IC50 in data set [1] is 56 µM.

In the case of `N=c1c2ncn3c2ncn1[C@@H]1O[C@H](COP(=O)(O)OP(=O)(O)OC[C@H]2O[C@@H]3[C@H](O)[C@@H]2O)[C@@H](O)[C@H]1O` [cADPR, Cyclic adenosine 5′-diphosphate ribose], the “pKa of the N6-amino form” value in data set [2] is 8.3. Further, the “hydrolysis at the N1 link” value in data set [3] (neutral aqueous solution and physiological conditions) was “hydrolyzed at the N1 link in both neutral aqueous solution and under physiological conditions”.

Turning to `N=c1c2ncn3c2ncn1[C@@H]1C[C@H](COP(=O)(O)OP(=O)(O)OC[C@H]2O[C@@H]3[C@H](O)[C@@H]2O)[C@@H](O)[C@H]1O` [cADPcR, cyclic adenosine 5′-diphosphate carbocyclic ribose], the “pKa of the N6-amino dissociation” value in data set [2] is 8.9.

Regarding `O=c1c2ncn3c2ncn1[C@@H]1O[C@H](COP(=O)(O)OP(=O)(O)OC[C@H]2O[C@@H]3[C@H](O)[C@@H]2O)[C@@H](O)[C@H]1O` [compound 2, N1-cyclic inosine 5′-diphosphate ribose], in data set [4] (listed as cIDPR), the “hydrolysis by shCD38 at enzyme assay concentration” value is reported as “neither cIDPR (2) or 8-NH2-N9-butyl-; also recorded: not hydrolyzed”. In data set [4], the “hydrolysis by shCD38 at high concentration” value is “hydrolyzed by the enzyme at 4 mg/mL but at a slower rate than 7” and the “time to 50% hydrolysis” value was 420 min. Further, the “ionization over the pH range” value in data set [2] was “no ionization between 6.8 and 10.9”. The “Ca2+-release agonism” value in data set [5] (permeabilized T-cells) is recorded as “agonist for Ca^2+-release with almost equivalent potency to cADPR”. The “chemical and biological stability” value in data set [3] is “Chemically and biologically stable”.

Take `O=c1c2nc(Br)n3c2ncn1[C@@H]1O[C@H](COP(=O)(O)OP(=O)(O)OC[C@H]2O[C@@H]3[C@H](O)[C@@H]2O)[C@@H](O)[C@H]1O` [compound 3]: the “Ca2+-release agonism, membrane permeant” value in data set [5] is “stable membrane permeant agonist of Ca^2+ release”. Moreover, in data set [3], the “chemical and biological stability” value was “Chemically and biologically stable”.

As for `O=c1c2ncn3c2ncn1[C@@H]1O[C@H](COP(=O)(O)OP(=O)(O)OCCCC3)[C@@H](O)[C@H]1O` [compound 4, N1-Cyclic Hypoxanthine-N9-hydroxybutyl Diphosphate Ribose], the “hydrolysis by shCD38 at high concentration” value in data set [4] was “hydrolyzed by the enzyme at 4 mg/mL but at a slower rate than 7”.

On to `O=c1c2nc(Br)n3c2ncn1[C@@H]1O[C@H](COP(=O)(O)OP(=O)(O)OCCCC3)[C@@H](O)[C@H]1O` [compound 5, N1-Cyclic-8-bromohypoxanthine-N9-hydroxybutyl Diphosphate Ribose], for which, in data set [6], the IC50 amounted to 27 µM. Further, the “hydrolysis by shCD38 at high concentration” value in data set [4] is “hydrolyzed by the enzyme at 4 mg/mL but at a slower rate than 7”.

As to `[N-]=[N+]=Nc1nc2c(=O)n3cnc2n1CCCCOP(=O)(O)OP(=O)(O)OC[C@H]1O[C@@H]3[C@H](O)[C@@H]1O` [compound 6, N1-Cyclic-8-azidohypoxanthine-N9-hydroxybutyl Diphosphate Ribose], the half-inhibitory concentration (IC50) in data set [6] amounted to 6.4 µM.

In turn, `Nc1nc2c(=O)n3cnc2n1CCCCOP(=O)(O)OP(=O)(O)OC[C@H]1O[C@@H]3[C@H](O)[C@@H]1O` [compound 7, N1-Cyclic-8-aminohypoxanthine-N9-hydroxybutyl Diphosphate Ribose] came in with an IC50 in data set [6] of 3.3 µM. In addition, in data set [4] (parallel control containing no shCD38), the “change of the ligand peak in the control without shCD38” value is on record as “no change in the original peak”. Further, in data set [4], the “hydrolysis by shCD38 at enzyme assay concentration” value was “not hydrolyzed”, the “hydrolysis by shCD38 at high concentration” value is listed as “faster hydrolysis” and the “time to 50% hydrolysis” value is reported as 105 min.

The record behind these values is PMC4207131, “Cyclic Adenosine 5′-Diphosphate Ribose Analogs without a “Southern” Ribose Inhibit ADP-ribosyl Cyclase–Hydrolase CD38” (Journal of Medicinal Chemistry, 2014).
